Data set [1] deals with plasma protein. The conditions noted are these: cited from earlier work.
For data set [2], the system named is CYP2C9. The conditions noted are these: hepatic isoenzyme; cited from earlier work.
The test system of data set [3] is COX-1. The conditions noted are these: read-out: 50% inhibitory concentration (IC50) of COX-1; cited from earlier work.
Data set [4] relates to 2D6. The conditions noted are these: hepatic isoenzyme; cited from earlier work.
On the set-up of data set [5]: method as in earlier work. The conditions noted are these: cited from earlier work.
Data set [6] in a line: Safety evaluations (adverse events, clinical and laboratory examinations).
Experimental: The safety assessments were conducted on account of clinical examinations, such as evaluation of general subject appearance, vital signs and routine hematology and biochemistry assays[35], together with adverse events evaluation (AEs), conducted at screening, pretreatment, post-treatment (day 7) and end of trial (day 16). […] AEs were defined as mild, moderate or severe[37]. Determination of causal relationship between AEs and study drugs followed the criterions announced by the World Health Organization[27].
The test system of data set [7] is 3A4. The conditions noted are these: hepatic isoenzyme; cited from earlier work.
The subject of data set [8] is COX-2. The conditions noted are these: cited from earlier work.
The conditions of data set [9]: n=12; for Cmax / MRT0-∞: mean (SD); for Tmax: median (range).
Experimental: The volunteers were hospitalized on day-1 (the day before the study), 10 hours of fasting was required before administration[27].
The chromatographic separation was carried out on an LC system (Shimadzu LC-20AD, Tokyo, Japan) using water and acetonitrile, and AB QTRAP 4000 system (AB Sciex, Foster City, CA, USA) in positive electrospray ion mode was hired for quantification[29]–[31]. […] Liquid-liquid extraction with 3 mL dichloromethane: diethyl ether: (2:3, v/v) was employed for 200 μL human plasma.
(§1) The measurement outcomes contained area under the profile (AUC0-t), the terminal half-life (t1/2), maximum plasma concentration observed (Cmax), time of maximum concentration (Tmax). AUC from 0 to infinity (AUC0-∞). Parameters of pharmacodynamic were estimated from the INR data on each period. PT (INR) was measured with the use of prothrombin complex assay (STA-R, SPA 50 Reagent, Diagnostica stago)[34]. Maximum INR (INRmax) and baseline INR (INRbaseline) were determined by PTtest divide PTnormal.
(§2) Log-transformation of pharmacodynamic parameters INRmax and INR(AUC) were applied.
Data set [10] has as its system prothrombin time (INR). The settings on record: area under INR-time profile 0-[…]; 5 mg warfarin; n=12.
Experimental: Current study is phase I clinical trial, which was designed as open-labeled and fixed-sequence, and all the information/data were collected from a single center. […] The volunteers were hospitalized on day-1 (the day before the study), 10 hours of fasting was required before administration[27]. Subjects should avoid any activities involved in risks of haemorrhage[9].
as §1, §2
Data set [11] relates to vitamin K-dependent coagulation factors. The settings on record: cited from earlier work.
Where [12] appears, read: warfarin 5 mg with steady-state imrecoxib.

Like-named read-outs stand apart in the source and are kept apart here.

Regarding `CCCN1CC(c2ccc(S(C)(=O)=O)cc2)=C(c2ccc(C)cc2)C1=O` [Imrecoxib, 4-(4-methylsulfonyl-phenyl)-1-propyl-3-(p-tolyl)-1H-pyrrol-2(5H)-one], the “protein bound in plasma” value in data set [1] is reported as 96%. In addition, the “rate of metabolism by CYP2C9” value in [2] is 62.5%. Besides, the figures for the IC50 in data set [3] and in data set [8] (read-out: 50% inhibitory concentration (IC50) of COX-2) were 115 ± 28 nM and 18 ± 4 nM, respectively. Further, the “rate of metabolism by CYP2D6” value in [4] was 21.1%. For the same molecule, in [5] (200 mg bid for 11 consecutive days), the accumulation in plasma result is “No accumulated effects”. Further, the t1/2 in [5] was 20 h. Moreover, the Tmax in [5] (following oral consumption) is 2 h. Further, in [5] (over the 30 to 200 mg dose range), the “single-dose pharmacokinetics dose linearity” value is reported as “linear”. Moreover, the adverse event result in data set [6] (one subject, period 2, Day 8 after first dose (200 mg), about 1.5 hours, resolved without treatment, possibly related) was “mild abdominal/upper abdominal discomfort”. Besides, in data set [7], the “rate of metabolism by CYP3A4” value is 16.4%. The “selective index (IC50, COX-1/COX2)” value in data set [8] (between that of meloxicam and celecoxib) is reported as 6.39.

With `CC(=O)C[C@H](c1ccccc1)c1c(O)c2ccccc2oc1=O` [R-warfarin], in data set [9] (warfarin 5 mg alone), the Cmax is on record as 285.25 (39.66) μg/L, the “MRT0-∞” value was 88.41 (19.96) hr and the Tmax is 1.0 (0.5–3.0) hr. Further, in [9] (setting [12]), the Cmax was 300.75 (36.61) μg/L, the “MRT0-∞” value is 83.44 (13.39) hr and the Tmax is listed as 0.8 (0.5–2.0) hr.

As for `CC(=O)CC(c1ccccc1)c1c(O)c2ccccc2oc1=O` (stereo not shown) [Warfarin], the “INR (AUC)” value in [10] was determined as 143.47. In addition, the safety and tolerance entry in data set [6] (healthy volunteers, across the trial) was “safey and good tolerance”. For the same molecule, in [6] (one subject, period 1, day 7, upper limit of normal 6.8 μmol/L, grade 1 AE, considered unrelated to study drugs), the “transient elevated direct bilirubin” value stood at 9.6 µmol/L.

For `CC(=O)C[C@@H](c1ccccc1)c1c(O)c2ccccc2oc1=O` [S-warfarin], in data set [9] (warfarin 5 mg alone), the Cmax is 294.92 (50.35) μg/L, the “MRT0-∞” value is reported as 66.44 (15.76) hr and the Tmax is recorded as 1.0 (0.5–3.0) hr. For the same molecule, in data set [9] (setting [12]), the Cmax is 300.42 (34.01) μg/L, the “MRT0-∞” value is reported as 63.35 (12.78) hr and the Tmax is on record as 0.8 (0.5–2.0) hr. The “share of anticoagulant activity of warfarin” value in data set [11] is 85%.

Values taken from paper PMC6823368 (Scientific Reports, 2019).
